20 compounds from ChEMBL document CHEMBL3784924, “Identification of a 5-[3-phenyl-(2-cyclic-ether)-methylether]-4-aminopyrrolo[2,3-d]pyrimidine series of IGF-1R inhibitors” (Bioorg Med Chem Lett, 2016) can be followed below.

Where only a bound is given, the exact number is not on record here.

The target in data set [1] is Tyrosine-protein kinase JAK1 (Homo sapiens, UniProt P23458). The data set is described as follows: Inhibition of Jak1 (unknown origin).
Data set [2] has as its target Epidermal growth factor receptor (Homo sapiens, UniProt P00533). Kind of data set: Inhibition of Her1 (unknown origin).
In data set [3] the target is Phosphatidylinositol 4,5-bisphosphate 3-kinase catalytic subunit beta isoform (Homo sapiens, UniProt P42338). Kind of data set: Inhibition of PI3K-beta (unknown origin).
The subject of data set [4] is Liver microsome. The data set is described as follows: Drug metabolism in human liver microsomes assessed as 3-(4-amino-7-((cis)-3-(azetidin-1-ylmethyl)cyclobutyl)-7H-pyrrolo[2,3-d]pyrimidin-5-yl)phenol formation by LC-MS/MS analysis. Format: ADME.
Data set [5] deals with Phosphatidylinositol 4,5-bisphosphate 3-kinase catalytic subunit alpha isoform (Homo sapiens, UniProt P42336). Kind of data set: Inhibition of PI3K-alpha (unknown origin).
In data set [6] the target is Voltage-gated inwardly rectifying potassium channel KCNH2 (Homo sapiens, UniProt Q12809). The data set is described as follows: Inhibition of human ERG by dofetilide binding assay.
Data set [7] concerns the target Insulin-like growth factor 1 receptor (Homo sapiens, UniProt P08069). Kind of data set: Inhibition of IGF-1 receptor (unknown origin).
A further data set concerns the target Cytochrome P450 3A4 (Homo sapiens, UniProt P08684). The data set is described as follows: Effect on human CYP3A4 at 10 uM. Format: ADME.
A short description of data set [8]: Solubility of compound in water. It is filed as physicochemical. To be noted: buffer.
A further data set deals with T1, Ephrin type-B receptor 4 (Homo sapiens, UniProt P54760).
T1 sequence (P54760 whole entry): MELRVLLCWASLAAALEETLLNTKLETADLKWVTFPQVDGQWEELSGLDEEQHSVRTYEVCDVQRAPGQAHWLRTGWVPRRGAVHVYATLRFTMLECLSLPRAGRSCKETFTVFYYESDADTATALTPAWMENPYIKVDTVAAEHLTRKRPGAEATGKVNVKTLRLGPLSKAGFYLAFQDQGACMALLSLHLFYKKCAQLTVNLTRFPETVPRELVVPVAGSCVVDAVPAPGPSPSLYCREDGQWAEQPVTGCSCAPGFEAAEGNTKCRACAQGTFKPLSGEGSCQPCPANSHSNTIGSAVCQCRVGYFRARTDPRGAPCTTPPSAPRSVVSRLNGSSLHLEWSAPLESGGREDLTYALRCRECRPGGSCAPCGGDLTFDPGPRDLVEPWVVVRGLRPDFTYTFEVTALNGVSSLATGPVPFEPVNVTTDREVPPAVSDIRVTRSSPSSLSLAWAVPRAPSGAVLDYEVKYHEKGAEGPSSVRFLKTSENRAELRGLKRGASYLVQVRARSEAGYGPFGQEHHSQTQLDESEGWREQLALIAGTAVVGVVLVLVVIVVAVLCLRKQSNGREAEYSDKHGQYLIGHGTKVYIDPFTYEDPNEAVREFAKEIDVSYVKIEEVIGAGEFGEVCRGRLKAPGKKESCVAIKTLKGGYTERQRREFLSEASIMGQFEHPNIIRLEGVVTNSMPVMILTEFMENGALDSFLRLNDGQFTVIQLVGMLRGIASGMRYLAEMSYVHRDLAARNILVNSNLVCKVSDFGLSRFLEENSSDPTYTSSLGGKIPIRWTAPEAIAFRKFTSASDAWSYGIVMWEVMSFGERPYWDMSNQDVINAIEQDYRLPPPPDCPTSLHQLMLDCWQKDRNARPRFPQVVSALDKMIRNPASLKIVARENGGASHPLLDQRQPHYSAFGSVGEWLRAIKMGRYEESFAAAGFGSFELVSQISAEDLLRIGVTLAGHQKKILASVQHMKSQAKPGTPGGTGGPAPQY
The data set is described as follows: Inhibition of EphB4 receptor (unknown origin).

The target in the next data set is Cytochrome P450 2D6 (Homo sapiens, UniProt P10635). The data set is described as follows: Effect on human CYP2D6 at 10 uM. Format: ADME.
Another data set deals with Insulin receptor (Homo sapiens, UniProt P06213). The data set is described as follows: Inhibition of Ins receptor (unknown origin).
Data set [9] concerns the target Proto-oncogene tyrosine-protein kinase receptor Ret (Homo sapiens, UniProt P07949). Kind of data set: Inhibition of Ret (unknown origin).
Data set [10] in a line: Permeability of compound at >= pH 7 by PAMPA assay. Format: ADME.
The target in data set [11] is Vascular endothelial growth factor receptor 2 (Homo sapiens, UniProt P35968). The data set is described as follows: Inhibition of KDR (unknown origin).
The target of data set [12] is Tyrosine-protein kinase Lck (Homo sapiens, UniProt P06239). Kind of data set: Inhibition of Lck (unknown origin).
The next data set addresses Cytochrome P450 2C9 (Homo sapiens, UniProt P11712). Kind of data set: Effect on human CYP2C9 at 10 uM. Format: ADME.
Data set [13] has as its system Liver microsome. Kind of data set: Drug level in human liver microsomes treated with NVP-AEW541 by LC-MS/MS analysis. It is filed as ADME.

Sequence of Phosphatidylinositol 4,5-bisphosphate 3-kinase catalytic subunit beta isoform (P42338 whole entry, canonical isoform): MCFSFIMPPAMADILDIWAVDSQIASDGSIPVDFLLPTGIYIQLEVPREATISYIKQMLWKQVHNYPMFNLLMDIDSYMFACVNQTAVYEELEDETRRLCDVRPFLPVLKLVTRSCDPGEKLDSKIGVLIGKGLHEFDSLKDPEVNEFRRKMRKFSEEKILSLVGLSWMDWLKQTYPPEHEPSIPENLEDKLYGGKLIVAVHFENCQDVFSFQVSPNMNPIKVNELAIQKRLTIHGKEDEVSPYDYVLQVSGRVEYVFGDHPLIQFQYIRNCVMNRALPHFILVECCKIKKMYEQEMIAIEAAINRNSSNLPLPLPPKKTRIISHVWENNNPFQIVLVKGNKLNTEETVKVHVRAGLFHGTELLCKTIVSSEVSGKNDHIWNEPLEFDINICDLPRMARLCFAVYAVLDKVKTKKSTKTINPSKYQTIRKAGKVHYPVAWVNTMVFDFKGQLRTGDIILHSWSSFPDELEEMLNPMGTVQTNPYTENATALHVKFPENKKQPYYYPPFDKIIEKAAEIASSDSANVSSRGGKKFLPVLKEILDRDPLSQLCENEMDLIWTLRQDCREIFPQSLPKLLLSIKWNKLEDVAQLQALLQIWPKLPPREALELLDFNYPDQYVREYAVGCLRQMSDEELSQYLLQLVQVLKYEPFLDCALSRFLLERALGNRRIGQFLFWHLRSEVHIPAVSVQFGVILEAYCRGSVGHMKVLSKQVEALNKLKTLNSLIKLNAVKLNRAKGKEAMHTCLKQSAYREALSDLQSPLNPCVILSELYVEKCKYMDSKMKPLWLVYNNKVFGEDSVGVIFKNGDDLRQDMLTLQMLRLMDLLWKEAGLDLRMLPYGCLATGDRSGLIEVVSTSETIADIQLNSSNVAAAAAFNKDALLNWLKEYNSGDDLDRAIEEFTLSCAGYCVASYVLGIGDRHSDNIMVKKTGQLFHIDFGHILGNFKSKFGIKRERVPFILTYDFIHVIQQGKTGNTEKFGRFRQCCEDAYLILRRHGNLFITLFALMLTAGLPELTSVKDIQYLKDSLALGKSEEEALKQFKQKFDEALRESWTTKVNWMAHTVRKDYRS
Sequence of Epidermal growth factor receptor (P00533 whole entry, canonical isoform): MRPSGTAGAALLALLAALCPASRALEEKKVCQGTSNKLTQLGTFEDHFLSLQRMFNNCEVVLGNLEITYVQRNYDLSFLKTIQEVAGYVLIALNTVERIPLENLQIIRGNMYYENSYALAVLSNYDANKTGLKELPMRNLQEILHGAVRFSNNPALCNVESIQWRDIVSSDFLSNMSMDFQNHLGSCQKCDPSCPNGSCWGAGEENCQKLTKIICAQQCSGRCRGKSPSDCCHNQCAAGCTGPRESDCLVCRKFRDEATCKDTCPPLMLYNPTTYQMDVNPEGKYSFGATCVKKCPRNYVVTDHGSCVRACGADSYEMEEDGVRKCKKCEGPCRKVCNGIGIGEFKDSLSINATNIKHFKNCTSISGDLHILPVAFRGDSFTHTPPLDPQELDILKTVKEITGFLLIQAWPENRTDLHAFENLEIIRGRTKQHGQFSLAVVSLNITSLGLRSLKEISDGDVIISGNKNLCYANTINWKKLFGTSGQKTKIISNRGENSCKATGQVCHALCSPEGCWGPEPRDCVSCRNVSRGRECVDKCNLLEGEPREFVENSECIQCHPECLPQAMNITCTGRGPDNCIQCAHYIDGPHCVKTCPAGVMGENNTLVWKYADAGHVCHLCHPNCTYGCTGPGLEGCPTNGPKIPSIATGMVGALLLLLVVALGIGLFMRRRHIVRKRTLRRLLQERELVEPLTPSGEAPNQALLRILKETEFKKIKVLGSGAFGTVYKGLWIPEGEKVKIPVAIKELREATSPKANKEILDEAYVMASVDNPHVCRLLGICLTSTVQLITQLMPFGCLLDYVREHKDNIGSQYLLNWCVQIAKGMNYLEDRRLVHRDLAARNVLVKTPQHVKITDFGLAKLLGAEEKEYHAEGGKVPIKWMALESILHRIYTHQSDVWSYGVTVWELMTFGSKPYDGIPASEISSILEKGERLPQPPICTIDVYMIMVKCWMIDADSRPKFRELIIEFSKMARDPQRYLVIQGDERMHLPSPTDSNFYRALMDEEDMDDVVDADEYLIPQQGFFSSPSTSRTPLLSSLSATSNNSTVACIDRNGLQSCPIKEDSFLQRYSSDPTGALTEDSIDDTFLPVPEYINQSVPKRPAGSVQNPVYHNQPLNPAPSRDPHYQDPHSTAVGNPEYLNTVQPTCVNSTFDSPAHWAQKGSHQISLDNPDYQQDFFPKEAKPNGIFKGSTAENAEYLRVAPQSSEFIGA
Sequence of Tyrosine-protein kinase JAK1 (P23458 whole entry): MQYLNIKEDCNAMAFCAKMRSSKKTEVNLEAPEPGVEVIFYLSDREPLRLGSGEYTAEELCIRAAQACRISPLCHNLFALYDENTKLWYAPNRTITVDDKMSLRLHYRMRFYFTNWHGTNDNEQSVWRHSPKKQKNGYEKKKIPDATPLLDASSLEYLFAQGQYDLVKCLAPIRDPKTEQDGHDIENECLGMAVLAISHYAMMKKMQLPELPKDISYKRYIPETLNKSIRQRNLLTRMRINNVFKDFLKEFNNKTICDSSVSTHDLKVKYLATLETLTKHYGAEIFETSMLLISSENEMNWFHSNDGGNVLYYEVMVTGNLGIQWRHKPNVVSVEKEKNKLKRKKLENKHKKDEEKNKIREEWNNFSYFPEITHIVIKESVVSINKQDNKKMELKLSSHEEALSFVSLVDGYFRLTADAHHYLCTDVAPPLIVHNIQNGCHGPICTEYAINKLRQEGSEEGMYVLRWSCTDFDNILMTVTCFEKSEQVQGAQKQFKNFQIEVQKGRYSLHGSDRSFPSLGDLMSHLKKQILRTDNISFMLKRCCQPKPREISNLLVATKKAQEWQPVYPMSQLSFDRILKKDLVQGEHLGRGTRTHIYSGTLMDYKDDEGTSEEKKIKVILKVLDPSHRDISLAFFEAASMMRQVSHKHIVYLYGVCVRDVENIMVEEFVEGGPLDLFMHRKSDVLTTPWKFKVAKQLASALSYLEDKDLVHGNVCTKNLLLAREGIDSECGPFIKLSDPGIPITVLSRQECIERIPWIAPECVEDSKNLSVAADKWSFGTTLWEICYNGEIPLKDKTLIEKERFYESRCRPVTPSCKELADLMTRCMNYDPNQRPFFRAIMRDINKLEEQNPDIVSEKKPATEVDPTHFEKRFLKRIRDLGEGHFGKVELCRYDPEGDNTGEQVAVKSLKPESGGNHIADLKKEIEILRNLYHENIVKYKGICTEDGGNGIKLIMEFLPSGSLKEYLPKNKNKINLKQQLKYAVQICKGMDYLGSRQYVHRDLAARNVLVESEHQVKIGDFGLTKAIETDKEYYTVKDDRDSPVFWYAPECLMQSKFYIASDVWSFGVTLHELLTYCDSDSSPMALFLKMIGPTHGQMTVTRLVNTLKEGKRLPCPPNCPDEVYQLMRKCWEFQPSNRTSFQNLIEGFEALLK
Sequence of Phosphatidylinositol 4,5-bisphosphate 3-kinase catalytic subunit alpha isoform (P42336 whole entry, canonical isoform): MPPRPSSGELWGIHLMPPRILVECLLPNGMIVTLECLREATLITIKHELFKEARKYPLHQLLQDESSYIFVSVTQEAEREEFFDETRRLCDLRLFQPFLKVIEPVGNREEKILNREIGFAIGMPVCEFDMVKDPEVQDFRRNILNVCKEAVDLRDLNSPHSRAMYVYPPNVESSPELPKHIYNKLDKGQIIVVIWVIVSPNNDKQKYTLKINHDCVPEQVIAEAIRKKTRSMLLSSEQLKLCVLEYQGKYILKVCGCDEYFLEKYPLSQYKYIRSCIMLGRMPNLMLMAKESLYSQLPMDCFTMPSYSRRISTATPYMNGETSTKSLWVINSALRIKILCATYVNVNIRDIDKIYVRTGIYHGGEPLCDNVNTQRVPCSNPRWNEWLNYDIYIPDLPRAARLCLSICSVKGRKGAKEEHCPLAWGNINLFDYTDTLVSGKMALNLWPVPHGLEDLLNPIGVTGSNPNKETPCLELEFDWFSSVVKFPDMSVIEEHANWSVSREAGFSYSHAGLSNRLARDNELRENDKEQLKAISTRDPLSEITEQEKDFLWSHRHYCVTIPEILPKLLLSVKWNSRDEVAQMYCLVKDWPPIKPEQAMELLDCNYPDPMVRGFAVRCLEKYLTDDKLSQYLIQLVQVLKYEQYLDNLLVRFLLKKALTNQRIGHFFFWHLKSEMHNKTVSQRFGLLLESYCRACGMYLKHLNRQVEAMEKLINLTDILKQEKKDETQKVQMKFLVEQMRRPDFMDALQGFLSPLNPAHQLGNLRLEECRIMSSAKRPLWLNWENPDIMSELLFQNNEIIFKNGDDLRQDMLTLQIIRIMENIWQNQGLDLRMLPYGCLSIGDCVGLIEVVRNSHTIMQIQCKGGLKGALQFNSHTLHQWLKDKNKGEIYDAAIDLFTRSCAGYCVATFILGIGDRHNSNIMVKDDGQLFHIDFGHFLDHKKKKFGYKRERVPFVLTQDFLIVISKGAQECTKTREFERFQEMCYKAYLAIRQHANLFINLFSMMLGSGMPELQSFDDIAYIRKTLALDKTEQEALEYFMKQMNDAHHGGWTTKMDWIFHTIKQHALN
Sequence of Cytochrome P450 3A4 (P08684 whole entry): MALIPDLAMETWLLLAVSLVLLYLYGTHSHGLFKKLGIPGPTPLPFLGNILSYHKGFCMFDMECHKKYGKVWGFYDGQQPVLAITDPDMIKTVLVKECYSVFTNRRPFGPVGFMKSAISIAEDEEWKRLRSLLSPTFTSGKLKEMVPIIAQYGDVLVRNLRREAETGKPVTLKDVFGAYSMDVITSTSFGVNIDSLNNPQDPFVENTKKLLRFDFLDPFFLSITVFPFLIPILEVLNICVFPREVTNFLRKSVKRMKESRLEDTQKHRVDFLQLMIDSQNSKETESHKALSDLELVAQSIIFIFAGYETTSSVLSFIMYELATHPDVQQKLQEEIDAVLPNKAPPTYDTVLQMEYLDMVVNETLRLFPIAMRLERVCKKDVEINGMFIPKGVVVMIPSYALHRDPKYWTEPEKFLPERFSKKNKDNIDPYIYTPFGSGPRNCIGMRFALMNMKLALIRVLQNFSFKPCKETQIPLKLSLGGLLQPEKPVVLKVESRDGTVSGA

With `Nc1ncnc2c1c(-c1cccc(OCc3ccccc3)c1)cn2[C@H]1C[C@@H](CN2CCC2)C1`, the half-maximal inhibitory concentration (IC50) in data set [1] is > 10000 nM; in [2], > 10000 nM; in data set [3] it was > 9000 nM; in [5], > 9000 nM; in data set [6], 130 nM. Besides, in the data set on Liver microsome [4], the Drug metabolism result is reported as “metabolite_detected”.

For `Nc1ncnc2c1c(-c1cccc(OCCOC3CCCC3)c1)cn2[C@H]1C[C@@H](CN2CCC2)C1`, half-maximal inhibition in data set [7] (IC50) was put at 490 nM.

In [7], `CC1(C)CC[C@H](COc2cccc(-c3cn([C@H]4C[C@@H](CN5CCC5)C4)c4ncnc(N)c34)c2)O1` gave a half-inhibitory concentration (IC50) of 60 nM.

Regarding `CCCOCCOc1cccc(-c2cn([C@H]3C[C@@H](CN4CCC4)C3)c3ncnc(N)c23)c1`, the IC50 in [7] was determined as 310 nM.

With `CC(C)CCOCCOc1cccc(-c2cn([C@H]3C[C@@H](CN4CCC4)C3)c3ncnc(N)c23)c1`, in data set [7], the concentration for half-maximal inhibition (IC50) was determined as 370 nM.

In [7], `Nc1ncnc2c1c(-c1cccc(OC[C@H]3CCCCO3)c1)cn2[C@H]1C[C@@H](CN2CCC2)C1` registered a concentration for half-maximal inhibition (IC50) of 80 nM. The Drug metabolism entry with Liver microsome [4] is “metabolite_notdetected”.

With `CC(C)OCCOc1cccc(-c2cn([C@H]3C[C@@H](CN4CCC4)C3)c3ncnc(N)c23)c1`, the IC50 in data set [7] turned out to be 260 nM.

With `Nc1ncnc2c1c(-c1cccc(OCC3CCCC3)c1)cn2[C@H]1C[C@@H](CN2CCC2)C1`, the half-maximal inhibitory concentration (IC50) in [7] worked out at 840 nM.

Take `CC1(C)CC[C@@H](COc2cccc(-c3cn([C@H]4C[C@@H](CN5CCC5)C4)c4ncnc(N)c34)c2)O1`: the Activity result on Cytochrome P450 3A4, on Cytochrome P450 2D6 and on Cytochrome P450 2C9 was “Not Active” throughout. The 50% inhibitory concentration (IC50) in data set [1] was > 10000 nM; on Ephrin type-B receptor 4 it was 690 nM; in data set [2], > 10000 nM; on Insulin receptor it was 100 nM; in data set [9], 970 nM; in data set [7] it was 9 nM. Besides, the IC50 in [3] was > 9000 nM; in [11], > 10000 nM; in [12], 7400 nM; in [5] it was > 9000 nM. For the same compound, in [8], the solubility entry is listed as “soluble”. Besides, the permeability entry in data set [10] is “permeable”.

Consider `CC(C)(C)OCCOc1cccc(-c2cn([C@H]3C[C@@H](CN4CCC4)C3)c3ncnc(N)c23)c1`, for which the half-maximal inhibitory concentration (IC50) in [7] came out at 160 nM.

`CCOCCOc1cccc(-c2cn([C@H]3C[C@@H](CN4CCC4)C3)c3ncnc(N)c23)c1` displayed a half-maximal inhibitory concentration (IC50) in data set [7] of 630 nM.

As for `Nc1ncnc2c1c(-c1cccc(OC[C@H]3CCCO3)c1)cn2[C@H]1C[C@@H](CN2CCC2)C1`, inhibition in data set [7] was half-maximal at 110 nM (IC50).

Regarding `Nc1ncnc2c1c(-c1cccc(O)c1)cn2[C@H]1C[C@@H](CN2CCC2)C1`, the Drug metabolism entry with Liver microsome [13] is listed as “metabolite_detected”.

Consider `Nc1ncnc2c1c(-c1cccc(OCC3CCC3)c1)cn2[C@H]1C[C@@H](CN2CCC2)C1`, for which, in data set [7], inhibition was half-maximal at 1900 nM (IC50).

In [7], `Nc1ncnc2c1c(-c1cccc(OCC3CCCCC3)c1)cn2[C@H]1C[C@@H](CN2CCC2)C1` yielded a 50% inhibitory concentration (IC50) of 550 nM.

Take `Nc1ncnc2c1c(-c1cccc(OCCO)c1)cn2[C@H]1C[C@@H](CN2CCC2)C1`: in data set [7], 7900 nM corresponded to half-maximal inhibition (IC50).

On to `COCCOc1cccc(-c2cn([C@H]3C[C@@H](CN4CCC4)C3)c3ncnc(N)c23)c1`, for which the IC50 in [7] came out at 2000 nM.

Consider `Nc1ncnc2c1c(-c1cccc(OC[C@@H]3CCCO3)c1)cn2[C@H]1C[C@@H](CN2CCC2)C1`, for which the IC50 is > 10000 nM in data set [1]; > 10000 nM in data set [2]; 80 nM in data set [7]; > 9000 nM in data set [3]; > 9000 nM in data set [5]; 3600 nM in data set [6].

`Nc1ncnc2c1c(-c1cccc(OC[C@@H]3CCCCO3)c1)cn2[C@H]1C[C@@H](CN2CCC2)C1`: in data set [7], the IC50 was determined as 130 nM.

In [7], `CC(Oc1cccc(-c2cn([C@H]3C[C@@H](CN4CCC4)C3)c3ncnc(N)c23)c1)c1ccccc1` (mixture of isomers) returned an IC50 of 3700 nM.
